One test addresses T1, SMARCA2 (Homo sapiens, UniProt P51531).
T1 construct: SMARCA2-HiBiT knock-in Hela monoclonal cell (CS302366); host or cells: HeLa monoclonal cells with heterozygous HiBiT knock-in at the endogenous SMARCA2 locus
As to the kind of experiment: SMARCA2 HiBiT degradation assay in HeLa cells. The test is classed as cell-based. The settings on record: 18 hours, highest concentration 10 μM. Put shortly:
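Degradation was read as Nano-Glo HiBiT lytic luminescence (30-60 min, RT) and fitted to curves. Compounds in 3-fold dilutions up to 10 μM were applied for 18 h at 37 °C. Cells were 2500/well monoclonal HeLa with a heterozygous C-terminal HiBiT tag on SMARCA2.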

Another test addresses T2, SMARCA4 (Homo sapiens, UniProt P51532).
T2 construct: SMARCA4-HiBiT knock-in Hela monoclonal cell (CS3023226); host or cells: HeLa monoclonal cells with heterozygous HiBiT knock-in at the endogenous SMARCA4 locus
In words: SMARCA4 HiBiT degradation assay in HeLa cells. The class given is cell-based. Particulars: 18 hours, highest concentration 10 μM. Put shortly: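 HeLa monoclonal cells with HiBiT knocked into SMARCA4 were seeded at 2500 cells/well, dosed with compound and incubated 18 hours at 37° C. HiBiT signal reported remaining SMARCA4 protein, and values came from curve fitting.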

T1 sequence (P51531 whole entry): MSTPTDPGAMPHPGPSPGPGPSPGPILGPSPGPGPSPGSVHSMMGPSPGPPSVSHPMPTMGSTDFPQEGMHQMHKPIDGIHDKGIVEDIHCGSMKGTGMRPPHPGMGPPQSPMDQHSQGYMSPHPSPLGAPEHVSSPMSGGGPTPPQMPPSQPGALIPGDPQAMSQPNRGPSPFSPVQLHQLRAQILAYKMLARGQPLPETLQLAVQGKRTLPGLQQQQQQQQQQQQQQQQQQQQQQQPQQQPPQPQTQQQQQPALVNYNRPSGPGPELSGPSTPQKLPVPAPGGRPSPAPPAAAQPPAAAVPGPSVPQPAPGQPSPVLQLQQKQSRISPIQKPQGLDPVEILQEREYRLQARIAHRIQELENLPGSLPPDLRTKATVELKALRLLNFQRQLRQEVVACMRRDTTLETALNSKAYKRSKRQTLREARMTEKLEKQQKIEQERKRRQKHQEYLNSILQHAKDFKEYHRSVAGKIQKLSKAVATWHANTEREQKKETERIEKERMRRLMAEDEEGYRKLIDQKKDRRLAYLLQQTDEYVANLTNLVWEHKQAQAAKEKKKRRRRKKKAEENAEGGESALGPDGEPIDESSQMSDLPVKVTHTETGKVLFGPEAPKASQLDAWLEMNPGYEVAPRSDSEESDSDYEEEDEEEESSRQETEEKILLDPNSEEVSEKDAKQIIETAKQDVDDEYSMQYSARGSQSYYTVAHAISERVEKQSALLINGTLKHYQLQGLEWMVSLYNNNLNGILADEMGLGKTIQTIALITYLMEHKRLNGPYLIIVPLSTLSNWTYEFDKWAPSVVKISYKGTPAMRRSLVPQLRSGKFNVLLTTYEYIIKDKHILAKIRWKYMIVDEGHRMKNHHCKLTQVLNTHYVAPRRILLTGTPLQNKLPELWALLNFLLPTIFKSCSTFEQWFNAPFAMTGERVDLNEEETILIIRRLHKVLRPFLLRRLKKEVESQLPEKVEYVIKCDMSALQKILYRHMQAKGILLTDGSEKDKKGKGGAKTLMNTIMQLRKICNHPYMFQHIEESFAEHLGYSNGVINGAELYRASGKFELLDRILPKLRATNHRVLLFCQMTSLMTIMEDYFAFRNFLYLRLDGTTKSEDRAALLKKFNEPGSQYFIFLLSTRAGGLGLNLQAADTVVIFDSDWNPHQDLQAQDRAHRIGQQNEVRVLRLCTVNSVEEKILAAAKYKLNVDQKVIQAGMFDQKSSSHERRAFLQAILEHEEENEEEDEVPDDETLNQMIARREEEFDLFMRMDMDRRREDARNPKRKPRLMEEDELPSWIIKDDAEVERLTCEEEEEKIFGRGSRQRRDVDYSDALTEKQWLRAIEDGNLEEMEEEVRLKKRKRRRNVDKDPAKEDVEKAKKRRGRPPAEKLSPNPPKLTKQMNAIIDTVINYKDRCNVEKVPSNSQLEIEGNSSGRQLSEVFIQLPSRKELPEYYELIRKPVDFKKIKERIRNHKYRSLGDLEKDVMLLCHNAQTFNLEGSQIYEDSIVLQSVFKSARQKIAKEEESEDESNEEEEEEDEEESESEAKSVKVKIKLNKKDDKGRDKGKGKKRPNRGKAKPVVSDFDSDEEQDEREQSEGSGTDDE
T2 sequence (P51532 whole entry): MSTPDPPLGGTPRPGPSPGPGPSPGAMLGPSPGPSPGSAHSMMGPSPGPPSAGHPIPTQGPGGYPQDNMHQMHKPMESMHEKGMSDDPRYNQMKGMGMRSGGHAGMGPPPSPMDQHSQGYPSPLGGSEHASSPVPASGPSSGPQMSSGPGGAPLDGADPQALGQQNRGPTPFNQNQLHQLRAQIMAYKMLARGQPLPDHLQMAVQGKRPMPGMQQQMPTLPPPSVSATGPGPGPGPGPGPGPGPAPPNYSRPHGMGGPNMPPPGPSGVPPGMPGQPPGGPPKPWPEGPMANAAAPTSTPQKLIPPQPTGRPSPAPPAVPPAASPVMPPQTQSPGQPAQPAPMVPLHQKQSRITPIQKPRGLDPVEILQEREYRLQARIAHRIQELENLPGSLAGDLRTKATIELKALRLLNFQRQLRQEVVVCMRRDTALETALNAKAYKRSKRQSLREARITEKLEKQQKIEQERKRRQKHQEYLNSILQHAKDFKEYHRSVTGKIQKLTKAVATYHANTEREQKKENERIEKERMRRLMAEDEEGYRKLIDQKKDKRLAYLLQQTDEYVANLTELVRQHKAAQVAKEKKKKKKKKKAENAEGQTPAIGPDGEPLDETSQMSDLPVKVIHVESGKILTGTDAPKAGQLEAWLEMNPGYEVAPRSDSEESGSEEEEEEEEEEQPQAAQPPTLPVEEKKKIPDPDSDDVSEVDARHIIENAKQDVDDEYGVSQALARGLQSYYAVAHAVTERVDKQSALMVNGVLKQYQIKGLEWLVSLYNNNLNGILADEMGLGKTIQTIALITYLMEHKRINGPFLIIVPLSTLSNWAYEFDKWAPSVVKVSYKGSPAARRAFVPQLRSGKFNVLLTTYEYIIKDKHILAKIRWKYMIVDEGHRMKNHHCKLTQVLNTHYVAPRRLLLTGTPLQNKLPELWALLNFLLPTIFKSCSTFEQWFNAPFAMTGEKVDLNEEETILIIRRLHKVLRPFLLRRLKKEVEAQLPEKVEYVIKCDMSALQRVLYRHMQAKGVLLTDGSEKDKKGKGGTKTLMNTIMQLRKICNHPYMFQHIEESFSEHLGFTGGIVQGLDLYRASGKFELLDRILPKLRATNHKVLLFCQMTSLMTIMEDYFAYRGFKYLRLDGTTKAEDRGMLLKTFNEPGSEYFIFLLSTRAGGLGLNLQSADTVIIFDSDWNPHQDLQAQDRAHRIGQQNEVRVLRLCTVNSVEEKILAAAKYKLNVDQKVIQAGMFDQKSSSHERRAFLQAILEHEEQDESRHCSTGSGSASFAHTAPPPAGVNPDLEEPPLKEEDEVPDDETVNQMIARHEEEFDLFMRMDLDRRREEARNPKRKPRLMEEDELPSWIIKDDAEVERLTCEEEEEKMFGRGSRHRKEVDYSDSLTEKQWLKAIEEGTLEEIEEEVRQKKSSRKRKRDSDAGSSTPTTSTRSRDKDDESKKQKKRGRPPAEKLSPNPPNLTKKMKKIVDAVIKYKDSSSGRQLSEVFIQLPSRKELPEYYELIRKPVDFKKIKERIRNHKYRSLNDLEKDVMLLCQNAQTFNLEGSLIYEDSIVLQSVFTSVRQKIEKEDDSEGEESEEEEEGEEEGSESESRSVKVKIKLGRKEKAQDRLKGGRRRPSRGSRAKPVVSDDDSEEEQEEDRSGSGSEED

On to `Cc1cc(CN2CCN(c3ccc4c(c3)C(=O)N([C@H]3CCC(=O)NC3=O)C4)CC2)c(C)nc1O[C@H]1CN2c3cc(-c4cccc(F)c4O)nnc3NC[C@@]2(C(F)F)C1` [Example 87, (S)-3-(6-(4-((6-(((6aR,8R)-6a-(difluoromethyl)-2-(3-fluoro-2-hydroxyphenyl)-5,6,6a,7,8,9-hexahydropyrrolo[1′,2′:4,5]pyrazino[2,3-c]pyridazin-8-yl)oxy)-2,5-dimethylpyridin-3-yl)methyl)piperazin-1-yl)-1-oxoisoindolin-2-yl)piperidine-2,6-dione], for which the DC50 on SMARCA2 is < 100 nM; at SMARCA4, 100 to 1000 nM. The Dmax at SMARCA2 was > 75%; on SMARCA4, < 50%.
As for `Cc1cc(O[C@H]2CN3c4cc(-c5cccc(F)c5O)nnc4NC[C@@]3(CF)C2)ncc1CN1CCC(c2ccc3c(c2)C(=O)N([C@H]2CCC(=O)NC2=O)C3)CC1` [Example 93, (S)-3-(6-(1-((6-(((6aR,8R)-2-(3-fluoro-2-hydroxyphenyl)-6a-(fluoromethyl)-5,6,6a,7,8,9-hexahydropyrrolo [1′,2′:4,5]pyrazino[2,3-c]pyridazin-8-yl)oxy)-4-methylpyridin-3-yl)methyl)piperidin-4-yl)-1-oxoisoindolin-2-yl)piperidine-2,6-dione], at SMARCA2, the DC50 is < 100 nM and the Dmax is > 75%. Also, at SMARCA4, the DC50 was > 1000 nM and the greatest degradation seen (Dmax) is < 50%.
As to `Cc1c(CN2CCC(c3ccc4c(c3)C(=O)N([C@H]3CCC(=O)NC3=O)C4)CC2)cnc(O[C@H]2CN3c4cc(-c5cccc(F)c5O)nnc4NC[C@]3(C(F)F)C2)c1F` [Example 89, (S)-3-(6-(1-((6-(((6aS,8R)-6a-(difluoromethyl)-2-(3-fluoro-2-hydroxyphenyl)-5,6,6a,7,8,9-hexahydropyrrolo[1′,2′:4,5]pyrazino[2,3-c]pyridazine-8-yl)oxy)-5-fluoro-4-methylpyridin-3-yl)methyl)piperidin-4-yl)-1-oxoisoindolin-2-yl)piperidine-2,6-dione], at SMARCA2, the half-maximal degradation concentration (DC50) was < 100 nM and the Dmax is > 75%. Besides, on SMARCA4, the half-maximal degradation concentration (DC50) was < 100 nM and the greatest degradation seen (Dmax) is > 75%.
As to `O=C1CCC(N2Cc3ccc(N4CCN(Cc5ccc(O[C@@H]6C[C@@H]7CNc8nnc(-c9cc(F)cc(F)c9O)cc8N7C6)c(F)c5)CC4)cc3C2=O)C(=O)N1` (stereo partly drawn) [Example 4, 3-(6-(4-(4-(((6aR,8R)-2-(3,5-difluoro-2-hydroxyphenyl)-5,6,6a,7,8,9-hexahydropyrrolo[1′,2′:4,5]pyrazino[2,3-c]pyridazin-8-yl)oxy)-3-fluorobenzyl)piperazin-1-yl)-1-oxoisoindolin-2-yl)piperidine-2,6-dione], the DC50 on SMARCA2 and at SMARCA4 was < 100 nM each time. Besides, the Dmax at SMARCA2 and at SMARCA4 was > 75% throughout.
`Cc1cc(CN2CCN(c3ccc4c(c3)C(=O)N(C3CCC(=O)NC3=O)C4)CC2)cnc1O[C@@H]1C[C@@H]2CNc3nnc(-c4cc(F)cc(F)c4O)cc3N2C1` (stereo partly drawn) [Example 31, 3-(6-(4-((6-(((6aR,8R)-2-(3,5-difluoro-2-hydroxyphenyl)-5,6,6a,7,8,9-hexahydropyrrolo[1′,2′:4,5]pyrazino[2,3-c]pyridazin-8-yl)oxy)-5-methylpyridin-3-yl)methyl)piperazin-1-yl)-1-oxoisoindolin-2-yl)piperidine-2,6-dione]: on SMARCA2, the half-maximal degradation concentration (DC50) is < 100 nM and the Dmax was > 75%. At SMARCA4, the DC50 is < 100 nM and the maximal degradation (Dmax) was > 75%.
For `CC[C@@]12CNc3nnc(-c4cccc(F)c4O)cc3N1C[C@H](Sc1cc(C)c(CN3CCN(c4ccc5c(c4)C(=O)N([C@H]4CCC(=O)NC4=O)C5)CC3)cn1)C2` [Example 60, 3-(6-(4-((6-(((6aR,8R)-6a-ethyl-2-(3-fluoro-2-hydroxyphenyl)-5,6,6a,7,8,9-hexahydropyrrolo[1′,2′:4,5]pyrazino[2,3-c]pyridazin-8-yl)thio)-4-methylpyridin-3-yl)methyl)piperazin-1-yl)-1-oxoisoindolin-2-yl)piperidine-2,6-dione], on SMARCA2, the DC50 was < 100 nM and the Dmax was > 75%. Further, at SMARCA4, the DC50 was < 100 nM and the Dmax fell in the range of 50 to 75%.
Regarding `CC(C)c1cc(CN2CCN(c3ccc4c(c3)C(=O)N(C3CCC(=O)NC3=O)C4)CC2)ccc1O[C@@H]1C[C@@H]2CNc3nnc(-c4cc(F)cc(F)c4O)cc3N2C1` (stereo partly drawn) [Example 14, 3-(6-(4-(4-(((6aR,8R)-2-(3,5-difluoro-2-hydroxyphenyl)-5,6,6a,7,8,9-hexahydropyrrolo[1′,2′:4,5]pyrazino[2,3-c]pyridazin-8-yl)oxy)-3-isopropylbenzyl)piperazin-1-yl)-1-oxoisoindolin-2-yl)piperidine-2,6-dione], at SMARCA2, the DC50 is < 100 nM and the maximal degradation (Dmax) was > 75%. On SMARCA4, the half-maximal degradation concentration (DC50) is < 100 nM and the Dmax was > 75%.
Take `CC[C@@]12CNc3nnc(-c4cccc(F)c4O)cc3N1C[C@H](Oc1nc(C)c(CN3CCC(c4ccc5c(c4)C(=O)N([C@H]4CCC(=O)NC4=O)C5)CC3)c(C)n1)C2` [Example 102, (S)-3-(6-(1-((2-(((6aR,8R)-6a-ethyl-2-(3-fluoro-2-hydroxyphenyl)-5,6,6a,7,8,9-hexahydropyrrolo[1′,2′:4,5]pyrazino[2,3-c]pyridazin-8-yl)oxy)-4,6-dimethylpyrimidin-5-yl)methyl)piperidin-4-yl)-1-oxoisoindolin-2-yl)piperidine-2,6-dione]: at SMARCA2, the DC50 is < 100 nM and the maximal degradation (Dmax) was > 75%. For the same compound, on SMARCA4, the DC50 is > 1000 nM and the maximal degradation (Dmax) was < 50%.
On the same counts, the results for `COc1cc(O[C@@H]2C[C@@H]3CNc4nnc(-c5cc(F)cc(F)c5O)cc4N3C2)ccc1CN1CCN(c2ccc3c(c2)C(=O)N(C2CCC(=O)NC2=O)C3)CC1` (stereo partly drawn) [Example 12, 3-(6-(4-(4-(((6aR,8R)-2-(3,5-difluoro-2-hydroxyphenyl)-5,6,6a,7,8,9-hexahydropyrrolo[1′,2′:4,5]pyrazino[2,3-c]pyridazin-8-yl)oxy)-2-methoxybenzyl)piperazin-1-yl)-1-oxoisoindolin-2-yl)piperidine-2,6-dione] are < 100 nM, > 75%, < 100 nM and > 75%.
For `CC[C@@]12CNc3nnc(-c4cccc(F)c4O)cc3N1C[C@H](Oc1cnc(CN3CCN(c4ccc5c(c4)CN([C@H]4CCC(=O)NC4=O)C5)CC3)c(F)c1)C2` [Example 72, (S)-3-(6-(4-((5-(((6aR,8R)-6a-Ethyl-2-(3-fluoro-2-hydroxyphenyl)-5,6,6a,7,8,9-exahydropyrrolo[1′,2′:4,5]pyrazino[2,3-c]pyridazin-8-yl)oxy)-3-fluoropyridin-2-yl)methyl)piperazin-1-yl)-1-oxoisoindolin-2-yl)piperidine-2,6-dione], the DC50 on SMARCA2 was < 100 nM; at SMARCA4, 100 to 1000 nM. Moreover, the results for the maximal degradation (Dmax) on SMARCA2 and on SMARCA4 were > 75% and < 50%, respectively.
On the same counts, the results for `CC[C@@]12CNc3nnc(-c4cccc(F)c4O)cc3N1C[C@H](Oc1cc(C)c(CN3CCN(c4ccc5c(c4)C(=O)N([C@H]4CCC(=O)NC4=O)C5)CC3)cn1)C2` [Example 56, 3-(6-(4-((6-(((6aR,8R)-6a-Ethyl-2-(3-fluoro-2-hydroxyphenyl)-5,6,6a,7,8,9-hexahydropyrrolo[1′,2′:4,5]pyrazino[2,3-c]pyridazin-8-yl)oxy)-4-methylpyridin-3-yl)methyl)piperazin-1-yl)-1-oxoisoindolin-2-yl)piperidine-2,6-dione] are < 100 nM, < 100 nM, > 75% and 50 to 75%.

These data come from US20240165244A1 (Prelude Therapeutics Incorporated, priority 2022, published 2024).
